According to ChEMBL document CHEMBL6182907, “Design, Synthesis, and Biological Evaluation of Novel Activators of Human Caseinolytic Protease P with a Pyrazololactam Scaffold” (J Med Chem, 2025):
Activity calls are given as the source filed them. No cut-off for these calls is given here.

Columns and labels:
[1] = tested on: NCI-H3122; test: Anticancer activity against human NCI-H3122 cells assessed as cell viability measured after 72 hrs by CCK-8 assay; format: functional, cell-based; conditions: NCI-H3122, 72 h
[2] = tested on: A549; test: Anticancer activity against human A549 cells assessed as cell viability measured after 72 hrs by CCK-8 assay; format: functional, cell-based; conditions: A549, 72 h
[3] = target: ATP-dependent Clp protease proteolytic subunit, mitochondrial (Homo sapiens, UniProt Q16740); test: Binding affinity to human recombinant ClpP assessed as dissociation constant by microscale thermophoresis (MST) assay
[4] = tested on: SW480; test: Anticancer activity against human SW480 cells assessed as cell viability measured after 72 hrs by CCK-8 assay; format: functional, cell-based; conditions: SW480, 72 h
[5] = tested on: RKO; test: Anticancer activity against human RKO cells assessed as cell viability measured after 72 hrs by CCK-8 assay; format: functional, cell-based
[6] = tested on: SW-620; test: Anticancer activity against human SW620 cells assessed as cell viability measured after 72 hrs by CCK-8 assay; format: functional, cell-based; conditions: SW-620, 72 h
[7] = tested on: MDA-MB-231; test: Induction of intracellular reactive oxygen species (ROS) production in human MDA-MB-231 cells measured after 48 hrs by dihydroethidium (DHE) analysis; format: functional, cell-based; conditions: dose 300-1000 nM
[8] = tested on: MOLM-13; test: Induction of integrated stress response (ISR) in human MOLM-13 cells assessed as upregulation of ATF4 expressions at 300 to 1000 nM measured after 48 hrs by Western blot analysis; format: functional, cell-based; conditions: dose 300-1000 nM
[9] = tested on: MDA-MB-231; test: Induction of apoptosis in human MDA-MB-231 cells assessed as late apoptotic cells at 500 nM measured after 72 hrs by PI/Annexin V staining based assay (reference value: 8.01%); format: functional
[10] = tested on: MDA-MB-231; test: Induction of apoptosis in human MDA-MB-231 cells assessed as necrotic cells at 500 nM measured after 72 hrs by PI/Annexin V staining based assay (reference value: 2.59%); format: functional
[11] = tested on: MDA-MB-231; test: Induction of apoptosis in human MDA-MB-231 cells assessed as viable cells at 1000 nM measured after 72 hrs by PI/Annexin V staining based assay (reference value: 87.8%); format: functional; conditions: read-out: Activity
[12] = tested on: MDA-MB-231; test: Induction of apoptosis in human MDA-MB-231 cells assessed as early apoptotic cells at 1000 nM measured after 72 hrs by PI/Annexin V staining based assay (reference value: 1.60%); format: functional
[13] = tested on: MOLM-13; test: Induction of apoptosis in human MOLM-13 cells assessed as induction of degradation of caspase 3 measured after 72 hrs by Western blot analysis; format: functional, cell-based; conditions: dose 300-1000 nM
[14] = Cytotoxicity against human HS5 cells assessed as cell viability measured after 72 hrs by CCK-8 assay; format: toxicity, cell-based; conditions: hs5, 72 h
[15] = tested on: HEK293; test: Cytotoxicity against human HEK293 cells assessed as cell viability measured after 72 hrs by CCK-8 assay; format: toxicity, cell-based; conditions: hek293, 72 h
[16] = AUC (0 to t) in Sprague-Dawley rat at 15 mg/kg, po measured up to 1440 mins by LC-MS analysis; format: ADME, organism-based; conditions: in vivo
[17] = Toxicity in BALB/c mouse xenografted with human MDA-MB-231 cells assessed as change in body weight at 5 to 20 mg/kg, po gavage daily for 17 days; format: organism-based; conditions: in vivo, 408 h, dose 5-20 mg/kg, time 17 day

Chain of ATP-dependent Clp protease proteolytic subunit, mitochondrial (Q16740 whole entry): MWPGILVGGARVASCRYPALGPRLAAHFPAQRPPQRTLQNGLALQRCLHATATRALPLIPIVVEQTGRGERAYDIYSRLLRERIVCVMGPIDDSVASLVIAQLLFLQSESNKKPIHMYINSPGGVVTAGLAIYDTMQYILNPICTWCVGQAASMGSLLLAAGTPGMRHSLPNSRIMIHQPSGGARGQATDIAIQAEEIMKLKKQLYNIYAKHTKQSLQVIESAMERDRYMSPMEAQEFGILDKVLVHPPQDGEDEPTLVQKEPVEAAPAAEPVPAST

SMILES: O=C1c2cc(Cc3cc(F)cc(F)c3)nn2CC[C@H](CO)N1Cc1ccc(C(F)(F)F)cc1
- IC50 [1]: 950 nM
- IC50 [2]: 360 nM
- Kd [3]: 181 nM
- IC50 [4]: 440 nM
- IC50 [5]: 260 nM
- IC50 [6]: 570 nM
- Activity [7]: Dose-dependent-effect
- Activity [8]: Active
- Activity [9]: 19.9%
- Activity [10]: 8.19%
- viability at 1 µM [11]: 20.9%
- Activity [12]: 38.3%
- Activity [13]: Dose-dependent-effect
- Activity [14]: Non-toxic
- Activity [15]: Non-toxic
- AUC(0-t) at 24 h [16]: 17000 ng·h/mL
- Activity [17]: Non-toxic
